Experimental data reported in the supplement of paper PMC10307832.

Key:
Assay in all cases: relative viability (nuclei count vs DMSO), 5 days (fraction); higher = more cells survive
[1] = compound: C1/C(=C\C2=CC=CS2)/C(=O)/C(=C/C3=CC=CS3)/C1 + NC(=O)Nc1cc(-c2cccc(F)c2)sc1C(=O)N[C@H]1CCCNC1 [AZD7762] (partner 0.2 µM)
Outline: (§1)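 Lung cancer cell lines in 1536-well plates got either a single drug or a fixed anchor-drug dose together with five library-drug doses (not always all listed) in √10 steps, by pin tool, on the day after seeding. Nuclei were counted after 5 days, and relative viability is the treated-to-vehicle ratio of nuclei counts. Values are medians of duplicate plates.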

TPCA-1 + Palbociclib = compound: C1=CC(=CC=C1C2=CC(=C(S2)NC(=O)N)C(=O)N)F [TPCA-1] + CC(=O)c1c(C)c2cnc(Nc3ccc(N4CCNCC4)cn3)nc2n(C2CCCC2)c1=O [Palbociclib] (partner 0.5 µM)
Outline: as §1

[2] = compound: C[C@]12O[C@H](C[C@]1(O)CO)n1c3ccccc3c3c4c(c5c6ccccc6n2c5c31)CNC4=O [Lestaurtinib] + CC(=O)c1c(C)c2cnc(Nc3ccc(N4CCNCC4)cn3)nc2n(C2CCCC2)c1=O [Palbociclib] (partner 0.5 µM)
Outline: as §1

[3] = compound: C1/C(=C\C2=CC=CS2)/C(=O)/C(=C/C3=CC=CS3)/C1 + CC1(C)CCC(c2ccc(Cl)cc2)=C(CN2CCN(c3ccc(C(=O)NS(=O)(=O)c4ccc(N[C@H](CCN5CCOCC5)CSc5ccccc5)c(S(=O)(=O)C(F)(F)F)c4)cc3)CC2)C1 [Navitoclax] (partner 0.5 µM)
Outline: as §1

Cell Line	relative viability ([1]; first compound 0.2 µM)	relative viability ([1]; first compound 0.6325 µM)	relative viability ([1]; first compound 2 µM)	relative viability ([1]; first compound 6.325 µM)	relative viability ([1]; first compound 20 µM)	relative viability (TPCA-1 + Palbociclib; first compound 0.4 µM)	relative viability (TPCA-1 + Palbociclib; first compound 1.265 µM)	relative viability (TPCA-1 + Palbociclib; first compound 4 µM)	relative viability ([2]; first compound 0.005 µM)	relative viability ([2]; first compound 0.01581 µM)	relative viability ([2]; first compound 0.05 µM)	relative viability ([2]; first compound 0.1581 µM)	relative viability ([2]; first compound 0.5 µM)	relative viability (TPCA-1 + Palbociclib; first compound 0.04 µM)	relative viability (TPCA-1 + Palbociclib; first compound 0.1265 µM)	relative viability ([3]; first compound 0.2 µM)	relative viability ([3]; first compound 0.6325 µM)	relative viability ([3]; first compound 2 µM)	relative viability ([3]; first compound 6.325 µM)	relative viability ([3]; first compound 20 µM)
SW 900	0.74	0.665	0.628	0.495	0.602	0.676	0.566	0.537	0.561	0.666	0.611	0.828	0.595	–	–	–	–	–	–	–
NCI-H1944	0.502	0.461	0.526	–	0.442	0.293	0.319	0.225	0.334	0.332	0.286	0.248	0.292	0.354	0.336	1.14	0.966	1.08	0.899	0.992
NCI-H727	0.574	0.527	0.731	–	0.682	0.594	0.62	0.593	0.723	0.713	0.719	–	0.716	0.761	0.47	0.528	0.426	0.503	0.302	0.391
NCI-H1650	–	–	–	–	–	0.408	0.474	0.354	0.353	0.433	0.356	0.396	0.245	0.323	0.309	1.11	1.15	1.21	1.1	1.24
HCC-827	0.21	0.192	0.245	0.226	0.245	0.521	0.413	0.278	0.533	0.489	0.444	0.382	0.43	0.487	0.407	1.1	0.966	1.01	0.959	1.02
HCC-366	0.297	0.347	0.215	0.241	0.145	0.397	0.328	0.192	0.371	0.424	0.471	0.391	0.172	–	0.346	1.09	1	0.955	1.05	1.05
HARA	0.431	0.271	0.319	0.361	0.336	0.282	0.27	0.176	0.233	0.32	0.278	0.234	0.243	0.249	0.298	1.1	1.15	1.13	0.497	1.11
NCI-H322M	0.491	0.58	0.484	0.518	0.521	0.488	0.523	0.403	0.473	0.497	–	0.515	0.519	0.469	0.469	1.32	1.2	1.4	0.587	0.976
LXF-289	1.07	1.13	1.16	1	1.07	0.627	0.643	0.514	0.624	0.633	0.443	0.49	0.234	0.623	0.605	0.939	0.996	0.929	0.862	0.908
PC-3 [JPC-3]	–	0.934	0.889	0.804	0.798	0.514	0.537	0.285	0.531	0.611	0.557	0.575	0.544	0.516	0.538	0.83	0.753	0.904	0.716	0.841
CAL-12T	0.597	0.84	0.592	0.537	0.547	0.445	0.416	0.172	0.365	0.526	0.409	0.302	0.183	0.585	0.507	1.31	1.35	1.35	0.844	1.05
COR-L 105	–	–	–	–	–	0.419	0.379	0.359	0.434	0.425	0.376	0.419	0.348	0.419	0.457	0.623	0.772	0.79	0.737	0.701
NCI-H2347	0.788	0.696	0.866	0.65	0.792	0.427	0.424	0.461	0.433	0.438	0.535	0.48	0.501	0.457	0.462	0.721	0.741	0.725	0.857	0.801
NCI-H2126	1.04	0.933	1.08	0.862	1	0.364	0.355	0.3	0.339	0.372	0.388	0.357	0.339	0.388	0.382	0.941	0.79	0.832	0.628	0.845
NCI-H838	0.967	0.949	0.933	0.875	0.841	0.222	0.194	0.199	0.209	0.204	0.196	0.194	0.147	0.225	0.193	1.23	1.17	1.14	0.86	1.05
A549	–	–	–	–	–	–	–	–	–	–	–	–	–	–	–	1.32	1.33	1.24	1.02	1.19
NCI-H2342	0.484	0.537	0.718	0.483	0.363	0.535	0.534	0.547	0.518	0.439	0.545	0.526	0.504	0.461	0.546	–	–	–	–	–
SK-LU-1	–	–	–	–	–	0.368	0.347	0.235	0.333	0.335	0.356	0.3	0.288	0.363	0.367	0.698	0.767	0.813	0.969	0.799
